Like-named read-outs stand apart in the source and are kept apart here. Each block holds one compound with its values, some of them ahead of it.
Key:
hERG = biological target: T1, hERG (Homo sapiens, UniProt Q12809); test: in vitro hERG assay, standard protocol; assay type: cell-based; conditions: read-out: 1
T1 construct: gene KCNH2; in vitro hERG assay, standard protocol
Source text: in vitro hERG assay, standard protocol on hERG

CYP3A4 = CYP3A4 (Homo sapiens, UniProt P08684); test: midazolam marker-substrate inhibition assay, LC-MS/MS; assay type: biochemical
Source text: midazolam marker-substrate inhibition assay, LC-MS/MS on CYP3A4

Cdk4 = Cdk4 (Homo sapiens, UniProt P11802); conditions: mixed human cell/tissue extract; maximum concentration 20 μM
ACVR1 = ACVR1 (Homo sapiens, UniProt Q04771); test: biochemical; design: species or system HEK293/K-562/placenta mixed human extract; Kinobeads chemoproteomic competition binding, quantified by TMT LC-MS/MS, dose response up to 20 uM
AZI2 = AZI2 (Homo sapiens, UniProt Q9H6S1); test: biochemical; design: species or system HEK293/K-562/placenta mixed human extract; Kinobeads chemoproteomic competition binding, quantified by TMT LC-MS/MS, dose response up to 20 uM
CAMKK1 [1] = biological target: T2, CAMKK1 (Homo sapiens, UniProt Q8N5S9); test: biochemical; design: species or system HEK293/K-562/placenta mixed human extract; Kinobeads chemoproteomic competition binding, quantified by TMT LC-MS/MS, dose response up to 20 uM
CSK = CSK (Homo sapiens, UniProt P41240); test: biochemical; design: species or system HEK293/K-562/placenta mixed human extract; Kinobeads chemoproteomic competition binding, quantified by TMT LC-MS/MS, dose response up to 20 uM
CSNK2B = CSNK2B (Homo sapiens, UniProt P67870); test: biochemical; design: species or system HEK293/K-562/placenta mixed human extract; Kinobeads chemoproteomic competition binding, quantified by TMT LC-MS/MS, dose response up to 20 uM
EIF2AK4 = EIF2AK4 (Homo sapiens, UniProt Q9P2K8); test: biochemical; design: species or system HEK293/K-562/placenta mixed human extract; Kinobeads chemoproteomic competition binding, quantified by TMT LC-MS/MS, dose response up to 20 uM
EPHA2 = EPHA2 (Homo sapiens, UniProt P29317); test: biochemical; design: species or system HEK293/K-562/placenta mixed human extract; Kinobeads chemoproteomic competition binding, quantified by TMT LC-MS/MS, dose response up to 20 uM
IRAK1 = IRAK1 (Homo sapiens, UniProt P51617); test: biochemical; design: species or system HEK293/K-562/placenta mixed human extract; Kinobeads chemoproteomic competition binding, quantified by TMT LC-MS/MS, dose response up to 20 uM
LATS1 = LATS1 (Homo sapiens, UniProt O95835); test: biochemical; design: species or system HEK293/K-562/placenta mixed human extract; Kinobeads chemoproteomic competition binding, quantified by TMT LC-MS/MS, dose response up to 20 uM
MAP4K3 = MAP4K3 (Homo sapiens, UniProt Q8IVH8); test: biochemical; design: species or system HEK293/K-562/placenta mixed human extract; Kinobeads chemoproteomic competition binding, quantified by TMT LC-MS/MS, dose response up to 20 uM
NEK7 = NEK7 (Homo sapiens, UniProt Q8TDX7); test: biochemical; design: species or system HEK293/K-562/placenta mixed human extract; Kinobeads chemoproteomic competition binding, quantified by TMT LC-MS/MS, dose response up to 20 uM
NUAK1 = NUAK1 (Homo sapiens, UniProt O60285); test: biochemical; design: species or system HEK293/K-562/placenta mixed human extract; Kinobeads chemoproteomic competition binding, quantified by TMT LC-MS/MS, dose response up to 20 uM
PLK1 = PLK1 (Homo sapiens, UniProt P53350); test: biochemical; design: species or system HEK293/K-562/placenta mixed human extract; Kinobeads chemoproteomic competition binding, quantified by TMT LC-MS/MS, dose response up to 20 uM
TAOK3 = TAOK3 (Homo sapiens, UniProt Q9H2K8); test: biochemical; design: species or system HEK293/K-562/placenta mixed human extract; Kinobeads chemoproteomic competition binding, quantified by TMT LC-MS/MS, dose response up to 20 uM
CAMKK1 [2] = biological target: T2, CAMKK1; test: biochemical; design: species or system HEK293/K-562/placenta mixed human extract; Kinobeads chemoproteomic competition binding, quantified by TMT LC-MS/MS, dose response up to 20 uM; remark: listed apart in the source
GSK3A = GSK3A (Homo sapiens, UniProt P49840); test: biochemical; design: species or system HEK293/K-562/placenta mixed human extract; Kinobeads chemoproteomic competition binding, quantified by TMT LC-MS/MS, dose response up to 20 uM
MAPK9 = MAPK9 (Homo sapiens, UniProt P45984); test: biochemical; design: species or system HEK293/K-562/placenta mixed human extract; Kinobeads chemoproteomic competition binding, quantified by TMT LC-MS/MS, dose response up to 20 uM
PIM3 = PIM3 (Homo sapiens, UniProt Q86V86); test: biochemical; design: species or system HEK293/K-562/placenta mixed human extract; Kinobeads chemoproteomic competition binding, quantified by TMT LC-MS/MS, dose response up to 20 uM

T2 sequence (Q8N5S9 whole entry): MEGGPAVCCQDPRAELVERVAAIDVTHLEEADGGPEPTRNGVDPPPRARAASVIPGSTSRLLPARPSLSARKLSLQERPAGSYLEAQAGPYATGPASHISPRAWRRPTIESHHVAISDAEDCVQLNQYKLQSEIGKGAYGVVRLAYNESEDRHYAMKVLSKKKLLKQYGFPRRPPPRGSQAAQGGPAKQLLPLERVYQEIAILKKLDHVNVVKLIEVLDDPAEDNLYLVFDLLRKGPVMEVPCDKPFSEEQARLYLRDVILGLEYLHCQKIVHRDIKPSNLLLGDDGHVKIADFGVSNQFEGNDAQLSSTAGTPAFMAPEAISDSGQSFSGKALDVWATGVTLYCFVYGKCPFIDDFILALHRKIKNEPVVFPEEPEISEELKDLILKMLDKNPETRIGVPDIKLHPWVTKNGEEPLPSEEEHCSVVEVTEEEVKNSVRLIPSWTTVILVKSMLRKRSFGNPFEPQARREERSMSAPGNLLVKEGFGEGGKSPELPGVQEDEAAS
Sequence of MAPK9 (P45984 whole entry): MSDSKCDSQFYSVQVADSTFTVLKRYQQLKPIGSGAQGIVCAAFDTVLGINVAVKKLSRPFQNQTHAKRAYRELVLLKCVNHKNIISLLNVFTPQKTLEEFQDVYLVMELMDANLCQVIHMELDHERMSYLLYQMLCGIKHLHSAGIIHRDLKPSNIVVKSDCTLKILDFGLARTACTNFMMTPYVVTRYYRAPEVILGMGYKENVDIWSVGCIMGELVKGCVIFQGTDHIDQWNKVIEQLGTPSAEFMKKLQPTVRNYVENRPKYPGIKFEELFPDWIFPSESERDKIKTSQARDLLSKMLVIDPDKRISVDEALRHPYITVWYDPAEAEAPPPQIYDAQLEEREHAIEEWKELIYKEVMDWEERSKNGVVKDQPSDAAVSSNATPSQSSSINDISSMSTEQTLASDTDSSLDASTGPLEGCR
Sequence of Cdk4 (P11802 2-303): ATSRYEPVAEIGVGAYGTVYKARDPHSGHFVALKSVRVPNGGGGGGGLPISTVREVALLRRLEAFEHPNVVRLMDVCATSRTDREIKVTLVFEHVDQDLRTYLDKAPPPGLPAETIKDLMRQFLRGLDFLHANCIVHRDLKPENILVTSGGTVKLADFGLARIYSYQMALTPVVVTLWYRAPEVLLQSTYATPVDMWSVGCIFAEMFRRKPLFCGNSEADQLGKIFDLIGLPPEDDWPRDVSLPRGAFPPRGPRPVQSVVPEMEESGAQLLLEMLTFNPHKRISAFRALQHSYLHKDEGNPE
Sequence of ACVR1 (Q04771 whole entry): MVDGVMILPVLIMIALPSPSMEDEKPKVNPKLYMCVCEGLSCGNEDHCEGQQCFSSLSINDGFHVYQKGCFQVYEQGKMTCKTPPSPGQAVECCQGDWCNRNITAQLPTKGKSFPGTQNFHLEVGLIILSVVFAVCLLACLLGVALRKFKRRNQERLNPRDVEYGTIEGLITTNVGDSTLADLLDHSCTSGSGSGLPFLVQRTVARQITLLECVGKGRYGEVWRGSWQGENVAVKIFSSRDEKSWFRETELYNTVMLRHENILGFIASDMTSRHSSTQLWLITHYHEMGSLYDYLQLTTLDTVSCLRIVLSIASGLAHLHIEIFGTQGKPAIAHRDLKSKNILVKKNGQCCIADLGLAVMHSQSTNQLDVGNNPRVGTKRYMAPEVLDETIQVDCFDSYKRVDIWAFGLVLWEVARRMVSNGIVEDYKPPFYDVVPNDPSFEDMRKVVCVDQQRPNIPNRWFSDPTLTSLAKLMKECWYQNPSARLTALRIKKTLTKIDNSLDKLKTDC
Sequence of PLK1 (P53350 whole entry): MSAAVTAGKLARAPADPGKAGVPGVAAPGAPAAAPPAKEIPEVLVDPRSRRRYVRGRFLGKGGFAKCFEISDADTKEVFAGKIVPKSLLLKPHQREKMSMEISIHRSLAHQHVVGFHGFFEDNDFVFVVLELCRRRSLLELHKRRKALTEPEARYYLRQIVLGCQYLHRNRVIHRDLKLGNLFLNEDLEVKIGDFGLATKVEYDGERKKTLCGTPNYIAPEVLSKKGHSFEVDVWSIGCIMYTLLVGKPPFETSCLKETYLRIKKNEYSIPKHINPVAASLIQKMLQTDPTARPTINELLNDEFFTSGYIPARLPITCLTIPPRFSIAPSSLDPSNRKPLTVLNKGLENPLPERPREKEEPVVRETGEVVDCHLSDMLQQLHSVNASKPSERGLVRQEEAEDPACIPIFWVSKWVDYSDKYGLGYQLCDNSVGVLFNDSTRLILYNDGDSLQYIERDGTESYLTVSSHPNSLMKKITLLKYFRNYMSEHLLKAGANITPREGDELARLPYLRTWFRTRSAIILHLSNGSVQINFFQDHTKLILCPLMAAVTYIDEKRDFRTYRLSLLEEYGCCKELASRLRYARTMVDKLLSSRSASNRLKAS
Sequence of NEK7 (Q8TDX7 whole entry): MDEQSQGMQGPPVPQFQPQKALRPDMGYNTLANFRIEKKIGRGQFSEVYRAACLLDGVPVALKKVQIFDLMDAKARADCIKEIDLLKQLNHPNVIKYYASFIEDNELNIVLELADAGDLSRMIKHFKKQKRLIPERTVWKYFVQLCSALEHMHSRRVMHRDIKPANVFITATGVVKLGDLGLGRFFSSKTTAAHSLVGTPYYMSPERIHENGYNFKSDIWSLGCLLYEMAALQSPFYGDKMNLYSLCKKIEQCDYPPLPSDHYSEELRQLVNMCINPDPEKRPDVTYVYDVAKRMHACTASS
Sequence of IRAK1 (P51617 whole entry): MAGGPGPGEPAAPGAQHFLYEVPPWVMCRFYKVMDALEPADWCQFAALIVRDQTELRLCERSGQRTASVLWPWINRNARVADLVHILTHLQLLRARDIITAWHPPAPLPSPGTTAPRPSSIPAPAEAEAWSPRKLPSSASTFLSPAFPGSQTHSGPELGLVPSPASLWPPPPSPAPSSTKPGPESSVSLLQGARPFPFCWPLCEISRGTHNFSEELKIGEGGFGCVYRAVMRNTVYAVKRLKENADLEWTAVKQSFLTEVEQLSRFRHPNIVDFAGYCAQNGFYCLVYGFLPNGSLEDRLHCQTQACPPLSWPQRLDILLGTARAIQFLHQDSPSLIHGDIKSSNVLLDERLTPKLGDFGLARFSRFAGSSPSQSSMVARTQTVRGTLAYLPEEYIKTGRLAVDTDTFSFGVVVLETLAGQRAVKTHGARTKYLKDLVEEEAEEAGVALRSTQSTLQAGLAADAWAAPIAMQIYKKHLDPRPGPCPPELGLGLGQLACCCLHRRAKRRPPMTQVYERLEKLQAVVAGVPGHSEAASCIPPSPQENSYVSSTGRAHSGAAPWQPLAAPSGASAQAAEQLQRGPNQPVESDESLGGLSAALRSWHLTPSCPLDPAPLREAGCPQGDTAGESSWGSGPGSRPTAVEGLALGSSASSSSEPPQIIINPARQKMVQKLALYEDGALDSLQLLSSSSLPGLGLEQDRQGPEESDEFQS
Sequence of CSNK2B (P67870 whole entry): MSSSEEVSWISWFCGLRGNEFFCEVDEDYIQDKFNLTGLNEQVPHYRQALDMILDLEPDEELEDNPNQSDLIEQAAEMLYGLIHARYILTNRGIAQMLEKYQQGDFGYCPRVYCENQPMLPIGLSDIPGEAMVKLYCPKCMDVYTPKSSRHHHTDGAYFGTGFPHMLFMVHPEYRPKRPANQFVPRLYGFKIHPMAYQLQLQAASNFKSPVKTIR
Sequence of CYP3A4 (P08684 2-503): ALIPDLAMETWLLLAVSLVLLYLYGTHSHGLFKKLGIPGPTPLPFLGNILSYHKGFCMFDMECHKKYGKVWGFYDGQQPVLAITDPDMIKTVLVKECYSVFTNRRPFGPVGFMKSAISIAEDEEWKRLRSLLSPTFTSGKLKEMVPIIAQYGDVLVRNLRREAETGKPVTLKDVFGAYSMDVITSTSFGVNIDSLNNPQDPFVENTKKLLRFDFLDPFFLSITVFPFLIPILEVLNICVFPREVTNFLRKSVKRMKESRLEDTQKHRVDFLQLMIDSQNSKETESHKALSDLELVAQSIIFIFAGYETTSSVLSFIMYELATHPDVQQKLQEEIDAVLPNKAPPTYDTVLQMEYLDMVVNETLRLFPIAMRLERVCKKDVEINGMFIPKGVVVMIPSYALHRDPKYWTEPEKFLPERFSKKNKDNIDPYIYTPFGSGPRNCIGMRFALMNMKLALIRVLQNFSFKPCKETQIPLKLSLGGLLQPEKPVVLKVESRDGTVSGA
Sequence of GSK3A (P49840 whole entry): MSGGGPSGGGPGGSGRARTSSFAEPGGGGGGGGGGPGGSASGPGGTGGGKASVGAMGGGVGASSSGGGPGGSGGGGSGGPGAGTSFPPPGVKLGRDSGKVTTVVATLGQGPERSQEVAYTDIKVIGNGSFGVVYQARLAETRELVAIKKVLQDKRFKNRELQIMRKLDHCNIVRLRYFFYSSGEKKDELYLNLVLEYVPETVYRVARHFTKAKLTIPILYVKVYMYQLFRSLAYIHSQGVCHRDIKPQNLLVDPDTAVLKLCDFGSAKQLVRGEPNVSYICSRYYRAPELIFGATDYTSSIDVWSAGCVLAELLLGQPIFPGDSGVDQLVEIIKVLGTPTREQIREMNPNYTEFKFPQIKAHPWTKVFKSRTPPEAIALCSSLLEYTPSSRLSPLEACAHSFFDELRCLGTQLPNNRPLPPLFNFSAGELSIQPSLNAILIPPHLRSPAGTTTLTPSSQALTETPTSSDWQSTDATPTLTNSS

Compound: COc1nc(N[C@H]2CC[C@H](NS(=O)(=O)CC(C)C)CC2)nc2[nH]nc(N3CCOC[C@H]3C)c12 [compound 39, N-(trans-4-((4-Methoxy-3-((R)-3-methylmorpholino)-1H-pyrazolo[3,4-d]pyrimidin-6-yl)amino)cyclohexyl)-2-methylpropane-1-sulfonamide]
IC50 (hERG): > 30 µM
IC50 (CYP3A4): > 39.8 µM
IC50 (Cdk4): > 20 µM
IC50 (ACVR1): ≥ 20 µM
IC50 (AZI2): ≥ 20 µM
IC50 (CAMKK1 [1]): ≥ 20 µM
IC50 (CSK): ≥ 20 µM
IC50 (CSNK2B): ≥ 20 µM
IC50 (EIF2AK4): ≥ 20 µM
IC50 (EPHA2): ≥ 20 µM
IC50 (IRAK1): ≥ 20 µM
IC50 (LATS1): ≥ 20 µM
IC50 (MAP4K3): ≥ 20 µM
IC50 (NEK7): ≥ 20 µM
IC50 (NUAK1): ≥ 20 µM
IC50 (PLK1): ≥ 20 µM
IC50 (TAOK3): ≥ 20 µM

IC50 (CAMKK1 [2]): ≥ 20 µM
IC50 (GSK3A): ≥ 20 µM
IC50 (MAPK9): ≥ 20 µM
IC50 (PIM3): ≥ 20 µM
Compound: COc1ccccc1-c1n[nH]c2nc(N[C@H]3CC[C@H](NS(=O)(=O)CCC(F)(F)F)CC3)nc(OC)c12 [compound 31, 3,3,3-Trifluoro-N-(trans-4-((4-methoxy-3-(2-methoxyphenyl)-1H-pyrazolo[3,4-d]pyrimidin-6-yl)amino)cyclohexyl)propane-1-sulfonamide]

Source: PMC6407917, “Identification of GSK3186899/DDD853651 as a Preclinical Development Candidate for the Treatment of Visceral Leishmaniasis” (Journal of Medicinal Chemistry, 2018)
